Experimental data from patent US8148354B2, “Use of 20(S)-protopanaxadiol in manufacture of antidepressants” (priority 2006, dated 2012).
Marks after values point to notes of the source that are not given here.

Key:
[1] = system: Reserpine-Induced Ptosis in Mice; experiment: Inhibition of reserpine-induced ptosis; assay type: in vivo, Kunming mice; conditions: reserpine 2 mg/kg i.p., 10 mice per group
Description: Fifty male Kunming mice, 8-9 weeks old and weighing 18-22 g, were randomly divided by weight into 5 groups, and administered by gavage a single dose of one of the drugs listed in Table 3 for 10 consecutive days. Sixty minutes after the last dose, mice were given an i.p. injection of reserpine (2 mg/kg). After 60 minutes, mice were put on a bracketed stand and observed for 2 minutes. The number of animals with at least one upper eyelid closed was recorded. Fisher's exact test was used for statistical analysis.

[2] = system: mice in the tail suspension test; experiment: Tail suspension test in mice; assay type: in vivo, Kunming mice; conditions: mean ± SD
Description: Fifty male Kunming mice, 9-10 weeks old and weighing 22-24 g, were randomly divided by weight into 5 groups and administered by gavage a dose of one of the drugs listed in Table 6. Sixty minutes later, mice were individually suspended by the tail (1 cm from the tip) to a horizontal 1 cm-diameter PVC bar by use of the adhesive tape. The tail of mouse was thereby prevented from twisting. The PVC bar was placed overhead to suspend the mouse upside-down, keeping the head 5 cm above the table surface. To avoid interference, each mouse was partitioned by clapboard. […] T-test was used for statistical analysis.
Fifty male Kunming mice, 8-9 weeks old and weighing 18-22 g, were randomly divided by weight into 5 groups, and administered by gavage a dose of one of the drugs listed in Table 7 for 10 consecutive days. Sixty minutes after the last dose, mice were individually suspended by the tail (1 cm from the tip) from a horizontal 1 cm-diameter PVC bar using the adhesive tape. The tail of the mouse was thereby prevented from twisting. The PVC bar was placed overhead to suspend the mouse upside down, keeping the head 5 cm above the table surface. To avoid interference, each mouse was partitioned by clapboard.

[3] = system: chronic unpredictable stress rats; experiment: Chronic unpredictable stress testing of rats (open-field test); assay type: in vivo; conditions: mean ± SD
Description: Male stressed SD rats were housed individually and exposed for 21 days to the following unpredictable stressors: ice water swimming (4° C., 5 min), tail pinch (3 min), water deprivation (40 h), food deprivation (40 h), paired feeding, wet bedding, binding, and overnight lighting, each stress was applied two or three times. Animals in the non-stressed control group were housed 5 per cage. An open-field test was used to observe behavior. A large cubiform box (80×80×40 cm) was employed in which the floor was divided into 25 grids of equal size using white lines, with the same size grids also marked on the surrounding walls. The number of floor grids crossed (crossing) and the number of rearing up on hind limbs (rearing) were recorded. Observations of each rat were made every 3 minutes on the 22nd day. T test was used for statistical analysis.

[4] = system: model rats wearing shackles; experiment: Stress testing of rats wearing shackles (open-field test); assay type: in vivo; conditions: shackle model rats, mean ± SD
Description: (i) Modeling Method: Sixty male SD rats, 8-9 weeks old and weighing 200-250 g, were randomly divided into 6 groups and subjected to gavage once a day as shown in Table 9. On the first day, individually housed rats were fitted with a cylindrical plastic shackle-like device composed of two pieces of red organic glass 0.2 cm-thick and 4 cm in diameter. The device could be adjusted according to the size of the animals and was worn for 21 days.
(ii) Test Indexes: Behavior such as rearing up; grabbing and gnawing; braying; slowness in reactions; action tardiness; narrowing of the eyes with secretion; yellow of fur; small, dry and fewer feces; borrow-reddish fail with scales and weight loss. An open-field test was used to observe the behavior of animals on day 21 (the same method used with the chronic stress rat model).

[5] = system: 5-HTP-Induced Tremors in Mice; experiment: L-5-HTP induced tremor testing of mice; assay type: in vivo, Kunming mice; conditions: 10 mice per group
Description: Seventy male Kunming mice, 8-9 weeks old and weighing 18-22 g, were randomly divided by weight into 7 groups and administered a single dose by gavage as shown in Table 13. […] Then, mice were individually put into cages (16×27 cm) and observed for 20 minutes. The number of animals with tremors was recorded. Fisher's exact test was used for statistical analysis.

[6] = system: Levodopa Behavior in Mice; experiment: Enhancement of the behavioral effects of levodopa on mice; assay type: in vivo, Kunming mice; conditions: 10 mice per group
Description: Seventy male Kunming mice, 8-9 weeks old and weighing 18-22 g, were randomly divided by weight […] into 7 groups and administered a single dose by gavage as shown in Table 14. Sixty minutes later, levodopa at a dose of 200 mg/kg (the maximal dose not inducing running in mice) was administered i. p. Then, mice were put into separate cages and observed for 30 minutes. The number of running mice was recorded. Fisher's exact test was used for statistical analysis.

[7] = system: NA Re-uptake; experiment: NA re-uptake test ([3H]-norepinephrine, corpus striatum homogenate); assay type: biochemical, SD rats
[8] = open-field day 21, 16 mg/kg × 21 i.g.

For `CNCCC(Oc1ccc(C(F)(F)F)cc1)c1ccccc1` (centres unmarked) [Fluoxetine, reference compound], the “Number of animals with at least one upper eyelid closed” value ([1]; 18 mg/kg × 10 i.g.) was 4*, the “Cumulative immobility within 6 minutes” value ([2]; multiple dose 18 mg/kg × 10 i.g.) was 59.10 ± 35.40 s and the “Cumulative immobility within 6 minutes” value ([2]; single dose 18 mg/kg × 1 i.g.) was 70.90 ± 23.11 s. The Number of crossing ([3]; 16 mg/kg × 21 i.g.) was 44.40 ± 1.45 times/3 min, the Number of rearing ([3]; 16 mg/kg × 21 i.g.) was 11.30 ± 3.43 times/3 min and the Number of crossing [4, 8] was 11.20 ± 3.08 times/3 min. The Number of rearing [4, 8] was 49.80 ± 20.31 times/3 min, the “Number of running animals” value ([5]; 18 mg/kg × 1 i.g., with 5-HTP 200 mg/kg i.p.) was 8*** and the “Number of running animals” value ([5]; 18 mg/kg × 1 i.g., without 5-HTP) was 0. The “Number of running animals” value ([6]; 18 mg/kg × 1 i.g., with levodopa 200 mg/kg i.p.) was 7**, the “Number of running animals” value ([6]; 18 mg/kg × 1 i.g., without levodopa) was 0 and the Amount of re-uptake ([7]; concentration 1 μg/ml) was 4311.8 ± 733.8 dmp.

For `CC(C)=CCC[C@](C)(O)[C@H]1CC[C@]2(C)[C@@H]1[C@H](O)C[C@@H]1[C@@]3(C)CC[C@H](O)C(C)(C)[C@@H]3CC[C@]12C` [20(S)-protopanaxadiol], the “Number of animals with at least one upper eyelid closed” value ([1]; 3.75 mg/kg × 10 i.g.) was 9, the “Number of animals with at least one upper eyelid closed” value ([1]; 7.5 mg/kg × 10 i.g.) was 8 and the “Cumulative immobility within 6 minutes” value ([2]; single dose 3.75 mg/kg × 1 i.g.) was 95.00 ± 36.21 s. For the same compound, the “Cumulative immobility within 6 minutes” value ([2]; single dose 7.5 mg/kg × 1 i.g.) was 92.30 ± 32.93 s, the Number of crossing ([3]; 3.33 mg/kg × 21 i.g.) was 32.90 ± 13.19 times/3 min and the Number of rearing ([3]; 3.33 mg/kg × 21 i.g.) was 6.50 ± 2.64 times/3 min. The Number of crossing ([4]; open-field day 21, 3.33 mg/kg × 21 i.g.) was 7.00 ± 2.05 times/3 min, the “Number of running animals” value ([5]; 3.75 mg/kg × 1 i.g., with 5-HTP 200 mg/kg i.p.) was 2 and the “Number of running animals” value ([6]; 3.75 mg/kg × 1 i.g., with levodopa 200 mg/kg i.p.) was 2. For the same compound, the Amount of re-uptake ([7]; concentration 0.01 μg/ml) was 5347.8 ± 555.1 dmp, the Inhibitory rate ([7]; concentration 0.01 μg/ml) was 4.4% and the Amount of re-uptake ([7]; concentration 0.1 μg/ml) was 5137.2 ± 465.7 dmp. It also gave an Inhibitory rate ([7]; concentration 0.1 μg/ml) of 8.2%, an Amount of re-uptake ([7]; concentration 1 μg/ml) of 4950.6 ± 534.5 dmp and an Inhibitory rate ([7]; concentration 1 μg/ml) of 11.5%. It also gave an Amount of re-uptake ([7]; concentration 10 μg/ml) of 4690.1 ± 332.1 dmp and an Inhibitory rate ([7]; concentration 10 μg/ml) of 16.2%.
